{"source": "paper PMC8800111", "about": "(The Journal of Biological Chemistry, 2021)", "type_in_all_cases": "cell-based", "key": {"[1]": {"molecular_target": "proteins of U3A human fibrosarcoma cells (4462 proteins detected) (Homo sapiens, UniProt P30086)", "details": "protein PEBP1, U3A cells"}, "[2]": {"molecular_target": "proteins of U3A human fibrosarcoma cells (4462 proteins detected) (Homo sapiens, UniProt Q9HC36)", "details": "protein RNMTL1; U3A cells"}, "[3]": {"molecular_target": "proteins of U3A human fibrosarcoma cells (4462 proteins detected) (Homo sapiens, UniProt P57105)", "details": "protein SYNJ2BP-COX16; SYNJ2BP, U3A cells"}, "[4]": {"molecular_target": "proteins of U3A human fibrosarcoma cells (4462 proteins detected) (Homo sapiens, UniProt O00487)", "sequence (O00487 whole entry)": "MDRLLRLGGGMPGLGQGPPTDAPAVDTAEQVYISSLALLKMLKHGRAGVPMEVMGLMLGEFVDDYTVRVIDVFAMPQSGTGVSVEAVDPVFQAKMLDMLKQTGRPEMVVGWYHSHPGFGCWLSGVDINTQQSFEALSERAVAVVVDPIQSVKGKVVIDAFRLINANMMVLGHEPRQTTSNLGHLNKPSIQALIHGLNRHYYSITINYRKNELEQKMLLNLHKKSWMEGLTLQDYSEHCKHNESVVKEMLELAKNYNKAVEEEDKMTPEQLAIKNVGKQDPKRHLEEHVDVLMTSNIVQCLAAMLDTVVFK", "details": "protein PSMD14; U3A cells"}, "[5]": {"molecular_target": "proteins of U3A human fibrosarcoma cells (4462 proteins detected) (Homo sapiens, UniProt P13796)", "details": "protein LCP1; soluble abundance after heat, U3A cells"}, "[6]": {"molecular_target": "proteins of U3A human fibrosarcoma cells (4462 proteins detected) (Homo sapiens, UniProt O95801)", "details": "protein TTC4; soluble abundance after heat, U3A cells"}, "[7]": {"molecular_target": "proteins of U3A human fibrosarcoma cells (4462 proteins detected) (Homo sapiens, UniProt Q9Y592)", "sequence (Q9Y592 whole entry)": "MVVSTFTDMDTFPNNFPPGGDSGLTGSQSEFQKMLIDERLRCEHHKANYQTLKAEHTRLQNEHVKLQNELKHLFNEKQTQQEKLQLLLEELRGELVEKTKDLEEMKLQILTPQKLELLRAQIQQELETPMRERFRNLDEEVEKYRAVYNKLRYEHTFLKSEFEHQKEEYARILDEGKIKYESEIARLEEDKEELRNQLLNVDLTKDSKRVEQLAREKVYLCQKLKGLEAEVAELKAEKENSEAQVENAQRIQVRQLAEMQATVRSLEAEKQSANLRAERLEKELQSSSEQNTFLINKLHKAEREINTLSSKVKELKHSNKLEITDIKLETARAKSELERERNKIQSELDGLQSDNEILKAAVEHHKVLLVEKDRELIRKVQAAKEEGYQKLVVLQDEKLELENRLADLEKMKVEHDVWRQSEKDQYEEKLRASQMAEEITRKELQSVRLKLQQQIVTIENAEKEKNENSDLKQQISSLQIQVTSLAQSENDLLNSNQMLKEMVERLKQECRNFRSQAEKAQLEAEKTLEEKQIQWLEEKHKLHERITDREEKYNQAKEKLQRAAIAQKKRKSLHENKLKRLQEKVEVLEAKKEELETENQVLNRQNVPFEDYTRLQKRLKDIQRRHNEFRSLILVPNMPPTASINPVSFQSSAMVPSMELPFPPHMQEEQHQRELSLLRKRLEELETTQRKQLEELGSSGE", "details": "protein CEP83; U3A, 10 μM, 2 h"}, "[8]": {"molecular_target": "proteins of U3A human fibrosarcoma cells (4462 proteins detected) (Homo sapiens, UniProt P13473)", "details": "protein LAMP2; soluble abundance after heat, U3A cells"}, "[9]": {"molecular_target": "proteins of U3A human fibrosarcoma cells (4462 proteins detected) (Homo sapiens, UniProt Q9Y3B4)", "sequence (Q9Y3B4 whole entry)": "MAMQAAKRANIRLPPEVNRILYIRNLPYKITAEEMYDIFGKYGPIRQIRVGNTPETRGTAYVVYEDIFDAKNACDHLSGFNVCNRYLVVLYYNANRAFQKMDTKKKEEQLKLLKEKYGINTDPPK", "details": "protein SF3B6; soluble abundance after heat, U3A cells"}, "[10]": {"molecular_target": "proteins of U3A human fibrosarcoma cells (4462 proteins detected) (Homo sapiens, UniProt P30519)", "details": "protein HMOX2; U3A, 10 μM, 2 h"}, "[11]": {"molecular_target": "proteins of U3A human fibrosarcoma cells (4462 proteins detected) (Homo sapiens, UniProt Q8TED0)", "sequence (Q8TED0 whole entry)": "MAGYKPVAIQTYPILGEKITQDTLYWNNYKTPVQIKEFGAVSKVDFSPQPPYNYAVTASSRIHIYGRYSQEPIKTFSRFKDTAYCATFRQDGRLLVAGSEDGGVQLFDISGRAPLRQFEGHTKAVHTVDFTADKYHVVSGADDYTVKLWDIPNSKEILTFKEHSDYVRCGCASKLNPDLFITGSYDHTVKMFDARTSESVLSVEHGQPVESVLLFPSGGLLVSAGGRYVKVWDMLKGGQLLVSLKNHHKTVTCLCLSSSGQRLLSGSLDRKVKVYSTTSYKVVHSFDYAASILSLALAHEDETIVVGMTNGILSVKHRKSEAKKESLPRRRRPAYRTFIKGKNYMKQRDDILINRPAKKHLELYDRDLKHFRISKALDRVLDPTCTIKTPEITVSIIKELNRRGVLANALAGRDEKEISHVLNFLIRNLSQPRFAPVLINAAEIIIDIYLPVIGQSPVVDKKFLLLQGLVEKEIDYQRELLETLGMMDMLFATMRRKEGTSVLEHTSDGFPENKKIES", "details": "protein UTP15; U3A cells"}, "[12]": {"molecular_target": "proteins of U3A human fibrosarcoma cells (4462 proteins detected) (Homo sapiens, UniProt Q15382)", "sequence (Q15382 whole entry)": "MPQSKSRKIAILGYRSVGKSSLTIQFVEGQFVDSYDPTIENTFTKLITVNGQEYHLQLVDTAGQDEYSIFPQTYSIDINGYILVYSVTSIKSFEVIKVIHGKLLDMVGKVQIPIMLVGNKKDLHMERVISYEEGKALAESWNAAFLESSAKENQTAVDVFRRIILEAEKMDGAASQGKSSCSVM", "details": "protein RHEB; U3A, 10 μM, 2 h"}, "[13]": {"molecular_target": "proteins of U3A human fibrosarcoma cells (4462 proteins detected) (Homo sapiens, UniProt Q9Y6H1)", "sequence (Q9Y6H1 whole entry)": "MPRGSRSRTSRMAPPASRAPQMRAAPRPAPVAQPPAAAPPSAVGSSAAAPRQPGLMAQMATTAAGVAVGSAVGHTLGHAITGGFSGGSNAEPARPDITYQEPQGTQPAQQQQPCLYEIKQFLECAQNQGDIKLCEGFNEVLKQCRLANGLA", "details": "protein CHCHD2; CHCHD2P9; U3A, 10 μM, 2 h"}, "[14]": {"molecular_target": "proteins of U3A human fibrosarcoma cells (4462 proteins detected) (Homo sapiens, UniProt P49756)", "sequence (P49756 whole entry)": "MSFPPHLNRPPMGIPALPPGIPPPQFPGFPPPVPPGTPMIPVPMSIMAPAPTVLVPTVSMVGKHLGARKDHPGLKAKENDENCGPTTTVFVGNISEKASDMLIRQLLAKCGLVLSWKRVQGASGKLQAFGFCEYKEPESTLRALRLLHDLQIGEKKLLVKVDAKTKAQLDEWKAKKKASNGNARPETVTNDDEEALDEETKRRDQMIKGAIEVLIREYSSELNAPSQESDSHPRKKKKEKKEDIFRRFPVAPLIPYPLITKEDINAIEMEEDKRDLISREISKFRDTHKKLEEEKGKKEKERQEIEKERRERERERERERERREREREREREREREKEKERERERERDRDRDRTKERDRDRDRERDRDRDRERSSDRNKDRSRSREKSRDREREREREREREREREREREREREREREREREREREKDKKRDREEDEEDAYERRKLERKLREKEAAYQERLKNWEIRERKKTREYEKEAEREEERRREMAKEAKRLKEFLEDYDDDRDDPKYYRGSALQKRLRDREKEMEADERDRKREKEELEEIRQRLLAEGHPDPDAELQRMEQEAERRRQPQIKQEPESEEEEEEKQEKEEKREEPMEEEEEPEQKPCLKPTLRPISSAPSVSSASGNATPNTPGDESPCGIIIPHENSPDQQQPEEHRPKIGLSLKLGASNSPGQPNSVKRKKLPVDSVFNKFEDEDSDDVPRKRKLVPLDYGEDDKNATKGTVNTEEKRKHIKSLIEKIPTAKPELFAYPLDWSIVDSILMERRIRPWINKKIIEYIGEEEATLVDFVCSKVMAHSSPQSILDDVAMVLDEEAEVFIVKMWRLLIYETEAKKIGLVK", "details": "protein RBM25; U3A cells"}, "[15]": {"molecular_target": "proteins of U3A human fibrosarcoma cells (4462 proteins detected) (Homo sapiens, UniProt Q7L5N1)", "details": "protein COPS6; U3A cells"}, "[16]": {"molecular_target": "proteins of U3A human fibrosarcoma cells (4462 proteins detected) (Homo sapiens, UniProt P62805)", "details": "protein HIST1H4A; U3A, 10 μM, 2 h"}, "[17]": {"molecular_target": "proteins of U3A human fibrosarcoma cells (4462 proteins detected) (Homo sapiens, UniProt P68366)", "details": "protein TUBA4A; U3A cells"}, "[18]": {"molecular_target": "proteins of U3A human fibrosarcoma cells (4462 proteins detected) (Homo sapiens, UniProt P17252)", "details": "protein PRKCA; U3A cells"}, "[19]": {"molecular_target": "proteins of U3A human fibrosarcoma cells (4462 proteins detected) (Homo sapiens, UniProt Q13601)", "details": "protein KRR1; soluble abundance after heat, U3A cells"}, "[20]": {"molecular_target": "proteins of U3A human fibrosarcoma cells (4462 proteins detected) (Homo sapiens, UniProt Q15428)", "details": "protein SF3A2; U3A cells"}, "[21]": {"molecular_target": "proteins of U3A human fibrosarcoma cells (4462 proteins detected) (Homo sapiens, UniProt Q96PV6)", "sequence (Q96PV6 whole entry)": "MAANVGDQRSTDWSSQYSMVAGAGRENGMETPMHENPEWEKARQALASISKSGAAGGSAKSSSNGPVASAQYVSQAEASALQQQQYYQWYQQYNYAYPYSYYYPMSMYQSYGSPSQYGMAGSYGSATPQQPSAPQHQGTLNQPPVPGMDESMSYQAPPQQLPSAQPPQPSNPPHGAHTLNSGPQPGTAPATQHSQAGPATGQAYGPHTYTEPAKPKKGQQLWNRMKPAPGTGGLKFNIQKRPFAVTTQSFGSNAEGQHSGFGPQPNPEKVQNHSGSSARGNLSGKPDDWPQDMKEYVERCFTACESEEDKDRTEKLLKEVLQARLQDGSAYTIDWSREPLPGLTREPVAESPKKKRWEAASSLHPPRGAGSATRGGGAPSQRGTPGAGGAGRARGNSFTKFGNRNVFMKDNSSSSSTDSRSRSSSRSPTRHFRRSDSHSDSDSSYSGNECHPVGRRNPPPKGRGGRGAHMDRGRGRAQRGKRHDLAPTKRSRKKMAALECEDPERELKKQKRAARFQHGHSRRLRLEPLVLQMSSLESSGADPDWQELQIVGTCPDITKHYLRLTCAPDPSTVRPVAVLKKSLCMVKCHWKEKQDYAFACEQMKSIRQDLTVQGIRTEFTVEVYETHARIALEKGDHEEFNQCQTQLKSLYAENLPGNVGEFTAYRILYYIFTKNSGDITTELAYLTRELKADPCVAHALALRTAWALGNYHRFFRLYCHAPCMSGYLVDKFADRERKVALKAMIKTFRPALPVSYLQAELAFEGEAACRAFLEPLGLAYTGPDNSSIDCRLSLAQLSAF", "details": "protein LENG8; U3A, 10 μM, 2 h"}, "[22]": {"molecular_target": "proteins of U3A human fibrosarcoma cells (4462 proteins detected) (Homo sapiens, UniProt Q9NTX5)", "details": "protein ECHDC1; U3A cells"}, "[23]": {"molecular_target": "proteins of U3A human fibrosarcoma cells (4462 proteins detected) (Homo sapiens, UniProt Q96AC1)", "sequence (Q96AC1 whole entry)": "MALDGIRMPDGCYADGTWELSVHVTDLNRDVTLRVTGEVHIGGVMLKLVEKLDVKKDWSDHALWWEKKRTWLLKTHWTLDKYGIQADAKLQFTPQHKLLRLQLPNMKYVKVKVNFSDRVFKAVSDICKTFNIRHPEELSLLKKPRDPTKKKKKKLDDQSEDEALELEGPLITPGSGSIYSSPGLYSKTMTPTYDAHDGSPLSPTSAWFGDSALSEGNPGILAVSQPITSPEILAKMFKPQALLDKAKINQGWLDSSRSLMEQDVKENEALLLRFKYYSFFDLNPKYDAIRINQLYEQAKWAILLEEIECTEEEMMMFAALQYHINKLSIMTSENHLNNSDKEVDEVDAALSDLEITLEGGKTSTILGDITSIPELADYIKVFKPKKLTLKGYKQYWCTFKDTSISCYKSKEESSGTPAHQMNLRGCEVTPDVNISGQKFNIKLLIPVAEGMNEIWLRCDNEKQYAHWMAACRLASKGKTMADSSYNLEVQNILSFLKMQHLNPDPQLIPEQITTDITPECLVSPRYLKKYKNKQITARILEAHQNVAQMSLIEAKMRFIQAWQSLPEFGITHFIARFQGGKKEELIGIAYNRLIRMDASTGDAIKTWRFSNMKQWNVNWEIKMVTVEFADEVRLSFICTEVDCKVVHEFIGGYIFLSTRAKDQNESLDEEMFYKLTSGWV", "details": "protein FERMT2; U3A cells"}, "[24]": {"molecular_target": "proteins of U3A human fibrosarcoma cells (4462 proteins detected) (Homo sapiens, UniProt Q9NX08)", "sequence (Q9NX08 whole entry)": "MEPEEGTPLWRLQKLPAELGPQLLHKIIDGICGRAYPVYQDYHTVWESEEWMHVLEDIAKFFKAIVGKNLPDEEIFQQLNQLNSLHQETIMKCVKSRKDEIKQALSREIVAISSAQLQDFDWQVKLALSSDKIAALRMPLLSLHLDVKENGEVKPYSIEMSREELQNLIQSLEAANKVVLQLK", "details": "protein COMMD8; soluble abundance after heat, U3A cells"}, "[25]": {"molecular_target": "proteins of U3A human fibrosarcoma cells (4462 proteins detected) (Homo sapiens, UniProt Q13263)", "details": "protein TRIM28; U3A cells"}, "[26]": {"molecular_target": "proteins of U3A human fibrosarcoma cells (4462 proteins detected) (Homo sapiens, UniProt P07602)", "sequence (P07602 60-524)": "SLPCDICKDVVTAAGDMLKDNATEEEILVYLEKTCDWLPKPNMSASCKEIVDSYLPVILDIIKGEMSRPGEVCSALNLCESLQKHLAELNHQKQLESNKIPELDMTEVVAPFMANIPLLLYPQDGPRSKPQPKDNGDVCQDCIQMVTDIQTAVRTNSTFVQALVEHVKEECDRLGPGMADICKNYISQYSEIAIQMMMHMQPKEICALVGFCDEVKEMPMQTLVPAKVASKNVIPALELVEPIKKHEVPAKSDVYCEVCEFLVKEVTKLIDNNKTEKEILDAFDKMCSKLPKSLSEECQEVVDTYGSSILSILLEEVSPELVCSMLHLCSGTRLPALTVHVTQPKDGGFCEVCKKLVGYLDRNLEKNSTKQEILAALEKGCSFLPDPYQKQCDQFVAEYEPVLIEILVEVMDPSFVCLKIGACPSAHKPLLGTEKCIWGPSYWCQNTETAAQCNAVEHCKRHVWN", "details": "protein PSAP; soluble abundance after heat, U3A cells"}, "[27]": {"molecular_target": "proteins of U3A human fibrosarcoma cells (4462 proteins detected) (Homo sapiens, UniProt Q96QG7)", "details": "protein MTMR9; soluble abundance after heat, U3A cells"}, "[28]": {"molecular_target": "proteins of U3A human fibrosarcoma cells (4462 proteins detected) (Homo sapiens, UniProt Q8NBN3)", "details": "protein TMEM87A; U3A cells"}, "[29]": {"molecular_target": "proteins of U3A human fibrosarcoma cells (4462 proteins detected) (Homo sapiens, UniProt Q9Y5N6)", "details": "protein ORC6; U3A cells"}}}
{"smiles": "CCc1nc(N)nc(N)c1-c1ccc(Cl)cc1", "note": "[pyrimethamine]", "values": [{"measurement": "Log2 (PYR/DMSO)", "setting": "[1]", "value": -0.04}, {"measurement": "Log2 (PYR/DMSO)", "setting": "[2]", "value": 0.21}, {"measurement": "Log2 (PYR/DMSO)", "setting": "[3]", "value": -0.03}, {"measurement": "Log2 (PYR/DMSO)", "setting": "[4]", "value": 0.17}, {"measurement": "Log2 (PYR/DMSO)", "setting": "[5]", "value": 0.15}, {"measurement": "Log2 (PYR/DMSO)", "setting": "[6]", "value": 0.13}, {"measurement": "Log2 (PYR/DMSO), CEP83", "setting": "[7]", "value": -0.43}, {"measurement": "Log2 (PYR/DMSO)", "setting": "[8]", "value": 0.14}, {"measurement": "Log2 (PYR/DMSO)", "setting": "[9]", "value": 0.14}, {"measurement": "Log2 (PYR/DMSO), HMOX2", "setting": "[10]", "value": 0.25}, {"measurement": "Log2 (PYR/DMSO)", "setting": "[11]", "value": 0.16}, {"measurement": "Log2 (PYR/DMSO), RHEB", "setting": "[12]", "value": -0.45}, {"measurement": "Log2 (PYR/DMSO), CHCHD2; CHCHD2P9", "setting": "[13]", "value": 0.36}, {"measurement": "Log2 (PYR/DMSO)", "setting": "[14]", "value": 0.21}, {"measurement": "Log2 (PYR/DMSO)", "setting": "[15]", "value": 0.16}, {"measurement": "Log2 (PYR/DMSO), HIST1H4A", "setting": "[16]", "value": 0.28}, {"measurement": "Log2 (PYR/DMSO)", "setting": "[17]", "value": 0.17}, {"measurement": "Log2 (PYR/DMSO)", "setting": "[18]", "value": 0.16}, {"measurement": "Log2 (PYR/DMSO)", "setting": "[19]", "value": 0.14}, {"measurement": "Log2 (PYR/DMSO)", "setting": "[20]", "value": 0.20}, {"measurement": "Log2 (PYR/DMSO), LENG8", "setting": "[21]", "value": 0.27}, {"measurement": "Log2 (PYR/DMSO)", "setting": "[22]", "value": 0.18}, {"measurement": "Log2 (PYR/DMSO)", "setting": "[23]", "value": 0.16}, {"measurement": "Log2 (PYR/DMSO)", "setting": "[24]", "value": 0.14}, {"measurement": "Log2 (PYR/DMSO)", "setting": "[25]", "value": 0.16}, {"measurement": "Log2 (PYR/DMSO)", "setting": "[26]", "value": 0.15}, {"measurement": "Log2 (PYR/DMSO)", "setting": "[27]", "value": 0.15}, {"measurement": "Log2 (PYR/DMSO)", "setting": "[28]", "value": 0.19}, {"measurement": "Log2 (PYR/DMSO)", "setting": "[29]", "value": 0.18}]}
